Experimental data: the supplement of paper PMC10307832

Tests used:
Experiment in all cases: relative viability (nuclei count vs DMSO), 5 days (fraction); higher = more cells survive
Doramapimod = compound: Cc1ccc(-n2nc(C(C)(C)C)cc2NC(=O)Nc2ccc(OCCN3CCOCC3)c3ccccc23)cc1 [Doramapimod]
Procedure, shortened: (§1)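 Five library-drug doses, separated by factors of √10, were pinned into 1536-well plates holding lung cancer cell lines after an overnight stay at 37 °C. Cells were fixed, permeabilised and Hoechst-stained in one step after 5 days without medium change, then imaged at 4×. Viability compares treated-well with vehicle-well nuclei, counted in MetaXpress, as a median across plates. Passing plates had control CV below 25% and at least one doubling.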

IPA-3 = compound: C1=CC=C2C(=C1)C=CC(=C2SSC3=C(C=CC4=CC=CC=C43)O)O [IPA-3]
Procedure, shortened: as §1

RAF265 = compound: Cn1c(Nc2ccc(C(F)(F)F)cc2)nc2cc(Oc3ccnc(-c4ncc(C(F)(F)F)[nH]4)c3)ccc21 [RAF265]
Procedure, shortened: as §1

IPA-3 + Foretinib = compound: C1=CC=C2C(=C1)C=CC(=C2SSC3=C(C=CC4=CC=CC=C43)O)O [IPA-3] + COc1cc2c(Oc3ccc(NC(=O)C4(C(=O)Nc5ccc(F)cc5)CC4)cc3F)ccnc2cc1OCCCN1CCOCC1 [Foretinib] (partner 0.25 µM)
Procedure, shortened: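 Nuclei were stained with Hoechst during a one-step fixation (final 0.05% Triton X-100, 1% formaldehyde, 1 ug/ml Hoechst) carried out 5 days after dosing, then counted on 4× images. The cells, lung cancer lines in 1536-well plates, had been dosed by pin tool the day after seeding with one drug alone or a fixed anchor-drug dose plus five library-drug doses (not always all listed) in √10 steps. Relative viability is the nuclei count in treated wells divided by that in vehicle wells, and each value is the median of duplicate plates.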

| Cell Line | relative viability (Doramapimod; 0.02 µM) | relative viability (Doramapimod; 0.06325 µM) | relative viability (Doramapimod; 0.2 µM) | relative viability (Doramapimod; 0.6325 µM) | relative viability (Doramapimod; 2 µM) | relative viability (IPA-3; 0.2 µM) | relative viability (IPA-3; 0.6325 µM) | relative viability (IPA-3; 2 µM) | relative viability (IPA-3; 6.325 µM) | relative viability (IPA-3; 20 µM) | relative viability (RAF265; 0.01 µM) | relative viability (RAF265; 0.03162 µM) | relative viability (RAF265; 0.1 µM) | relative viability (RAF265; 0.3162 µM) | relative viability (RAF265; 1 µM) | relative viability (IPA-3 + Foretinib; first compound 0.2 µM) | relative viability (IPA-3 + Foretinib; first compound 0.6325 µM) | relative viability (IPA-3 + Foretinib; first compound 2 µM) | relative viability (IPA-3 + Foretinib; first compound 6.325 µM) | relative viability (IPA-3 + Foretinib; first compound 20 µM) |
| --- | --- | --- | --- | --- | --- | --- | --- | --- | --- | --- | --- | --- | --- | --- | --- | --- | --- | --- | --- | --- |
| NCI-H1648 | 0.925 | 1.19 | 0.898 | 0.835 | 0.719 | 1.25 | 0.889 | 1.02 | 0.65 | 0.793 | 0.936 | 0.842 | 0.919 | 0.593 | 0.589 | – | – | – | – | – |
| NCI-H1623 | 0.986 | 0.982 | 0.944 | 0.775 | 0.88 | 1.07 | 0.943 | 0.971 | 0.951 | 0.993 | 1.06 | 0.945 | 1.09 | 0.456 | 0.798 | 0.97 | 0.899 | 0.878 | 0.815 | 0.923 |
| SK-LU-1 | 1.02 | 1.07 | 1.11 | 1.14 | 1.12 | 1.35 | 0.981 | 1.08 | 0.985 | 1.16 | 1.1 | 0.893 | 0.858 | 0.56 | 0.494 | 1.01 | 0.78 | 0.908 | 0.828 | 0.911 |
| NCI-H2085 | 1.04 | 0.975 | 1.01 | 1.01 | 0.966 | 1.07 | 0.957 | 1.01 | 0.933 | 1.18 | 1.04 | 0.904 | 1.05 | 0.915 | 0.97 | 0.948 | 0.824 | 1.28 | 0.949 | 1.04 |
| NCI-H460 | 0.994 | 0.999 | 1.04 | 1.05 | 0.972 | 1.2 | 0.967 | 0.921 | 0.945 | 0.993 | 1.02 | 0.968 | 1.09 | 0.971 | 0.965 | 1.12 | 0.924 | 0.851 | 0.929 | 0.931 |
| Calu-6 | 0.995 | 0.979 | 1.04 | 1.09 | 1.01 | 1.1 | 0.971 | 0.984 | 0.998 | 1.04 | 0.97 | 0.842 | 0.791 | 0.505 | 0.347 | 1.01 | 0.95 | 0.96 | 0.808 | 0.932 |
| RERF-LC-KJ | 1.09 | 1.03 | 1.07 | 1.02 | 0.999 | 1.14 | 0.943 | 0.946 | 0.991 | 1.07 | 1.03 | 0.974 | 0.987 | 0.791 | 0.715 | 1.02 | 0.913 | 0.868 | 0.847 | 1.04 |
| LCLC-103H | 1.02 | 1.01 | 0.887 | 0.988 | 0.929 | 1.12 | 0.962 | 0.876 | 0.99 | 1.07 | 1.01 | 1.05 | 0.919 | 0.78 | 0.72 | 0.908 | 0.862 | 0.756 | 0.725 | 0.775 |
| HCC-15 | 0.993 | 0.99 | 0.936 | 0.74 | 0.915 | 1.17 | 0.98 | 0.931 | 0.972 | 0.998 | 0.99 | 1.02 | 1.01 | 0.819 | 0.684 | 1.11 | 0.965 | 1.03 | 1.01 | 1.02 |
| H3255 | 1.05 | 0.981 | 0.96 | 0.968 | 0.933 | 1 | 0.973 | 0.895 | 0.986 | 1.22 | 1 | 1.05 | 1.03 | – | 0.67 | 0.861 | 0.865 | 0.876 | 0.832 | 0.861 |
| NCI-H1792 | 0.954 | 0.869 | 0.971 | 0.913 | 0.715 | 1.32 | 0.794 | 0.952 | 0.809 | 1.08 | 0.893 | 0.73 | 0.648 | 0.246 | 0.249 | – | – | – | – | – |
| NCI-H1563 | 0.996 | 0.996 | 1.11 | 1.28 | 1.06 | 1.09 | 0.959 | 1.01 | 1.1 | 1.17 | 1.06 | 1.05 | 1.01 | 1.03 | 0.932 | 0.996 | 0.87 | 1.01 | 1.01 | 0.867 |
| NCI-H596 | 1.02 | 1.12 | 0.957 | 0.92 | 0.984 | 0.934 | 0.989 | 0.977 | 1.13 | 1.2 | 1.28 | 0.987 | 1.07 | 1.03 | 0.829 | 0.691 | 0.945 | 0.923 | 0.881 | 1.06 |
| NCI-H2087 | 1.05 | 0.975 | 1.14 | 1.01 | 1 | 1.33 | 0.87 | 0.89 | 0.935 | 1.13 | 1.04 | 0.796 | 0.796 | 0.617 | 0.639 | 1.26 | 1.12 | 1.05 | 1.03 | 1.18 |
| NCI-H661 | 0.978 | 1.02 | 0.995 | 1.06 | 0.915 | 1.09 | 0.951 | 0.984 | 1 | 1.01 | 1.01 | 0.962 | 0.774 | 0.643 | 0.57 | 1.01 | 0.988 | 0.995 | 0.964 | 0.997 |
| NCI-H2342 | 1.05 | 0.918 | 0.998 | 1.09 | 0.933 | 1.07 | 1.08 | 0.975 | 1.11 | 1.14 | 0.937 | 1.06 | 1.04 | 0.895 | 0.85 | 1.11 | 1.04 | 1.15 | 1.19 | 1.3 |
| HCC-44 | 1.03 | 1.1 | 1.1 | 0.84 | 0.983 | 0.953 | 0.922 | 0.998 | 0.899 | 0.968 | 0.971 | 0.919 | 1.02 | 1.05 | 0.992 | – | – | – | – | – |
